Assay results taken from US8361999B2, “Methods of treating cholesterol gallstone disease with ezetimibe” (Pontificia Universidad Catolica de Chile, priority 2005, dated 2013).
Marks after values point to notes of the source that are not given here.

Experiments:
Assay type in all cases: in vivo, mouse
[1] = tested on: C57BL/6J mice; assay: Plasma cholesterol and plasma lipoprotein profile, protocol #1
Method: (§1) Surgery and sample harvest. The groups were maintained for 14 days (protocol #1) or 30 days (protocol #2) in the different experimental conditions. During the last three days of the protocols, 24 h depositions were collected from the different groups (pool) to determine the fecal excretion of neutral sterols (cholesterol) and acidic sterols (bile salts). At the end of the time established in the protocols, the mice were anesthetized (between 08:00-10:00 AM) with an intraperitoneal pentobarbital injection in doses of 4.5 mg per 100 gr body weight (Amigo et al., 2000) and subjected to surgery. Standardized surgery consists in an extended […] and visualization of abdominal organs, including liver, biliary tree and gallbladder. First, we performed a resection of the gallbladder (cholecystectomy), with the cystic duct previously ligated (Amigo et al., 2002; Amigo et al., 2000; Amigo et al., 2003b). The gallbladder is removed and visually inspected to determine the presence of gallstones. Then, the gallbladder bile is extracted to analyze the presence of cholesterol crystals in the fresh samples under the microscope with polarized light (20×). Aliquots are stored at −20° C. for subsequent chemical analysis. Afterwards, the common biliary duct is cannulated (biliary fistula) with a P-10 polyethylene cannula to collect bile during 15 minutes, determine bile flow by gravimetry (1 g bile=1 ml; bile flow is expressed as μl/min/g of mouse liver) and for posterior chemical analysis of biliary lipids and glutathione, as specified later. […] Then, the liver is removed, weighted, frozen in liquid nitrogen and stored at −80 for subsequent analyses. The plasma is separated by centrifugation at 1,500 rpm and stored at −80° C. for later analysis. The animal protocols were approved by our institution Ethics Committee and the animals were treated according to international care rules for experimental animals.
(§2) Intestinal absorption of cholesterol and bile salts. The capacity of Ezetimibe to inhibit cholesterol and bile salt absorption was indirectly determined by quantification of neutral sterols (cholesterol) and acidic sterols (bile acids) present in the feces collected on day 12, 13 and 14 of the experiment (three days). In order to determine cholesterol (neutral sterols) fecal excretion, the feces were dried at 50° C. for three days and then weighted to obtain an average of fecal excretion per day (in grams). The feces were homogenized in a mortar, and 5 ml 2N NaOH:methanol, 1:1 are added per 100 mg (dry weight) aliquots of the homogenate. The sample is vortex and incubated at 60° C. for 1 h for saponification, then it is cooled and 5 ml petroleum ether is added followed by vigorous agitation to obtain the separation of the hydrophobic and hydrophilic phases. The samples are then centrifuged at 1,000 rpm for 10 minutes and the hydrophobic phase (upper layer) is recovered. Second and third extractions are performed by adding 5 ml petroleum ether to the hydrophilic phase. The hydrophobic phases are dried under gaseous nitrogen and the lipids are resuspended in 1 ml chloroform. 50 μl aliquots, in duplicate, are dried at room temperature, and total cholesterol is quantified according to the enzymatic method described above. The values obtained are expressed as μmoles cholesterol/day/100 g of mouse (Miettinen et al., 1965). […]

[2] = tested on: C57BL/6J mice; assay: Determination of hepatic cholesterol, protocol #1; details: 14 days
Method: as §1
Determination of hepatic cholesterol. The hepatic cholesterol content is quantified from hepatic tissue (50 mg) that is homogenized in chloroform/methanol 2:1. The homogenate is incubated at 50° C. for 30 minutes, and then distilled H2O is added to separate the phases. The mix is vortexed and incubated at 4° C. for two hours and centrifuged at 1,000 rpm for 20 minutes. The lower phase (hydrophobic-chloroform) is removed and dried under gaseous nitrogen. The lipids on the tube wall are resuspended in chloroform plus Triton X-100 0.5% v/v. Four aliquots are taken and dried at room temperature. Total cholesterol content was measured to half of the tubes by the enzymatic method described earlier for biliary cholesterol. To the other half, free cholesterol was measured in buffer (Tris-HCl pH 7.6, Triton X-100, 0.2% phenol, aminoantipyrine) plus the enzymes cholesterol oxidase and peroxidase. The samples are incubated and quantified in the same way described for total cholesterol. The cholesterol ester content for each sample is calculated as the difference between total cholesterol and free cholesterol. The values obtained in each case are given as mg cholesterol/g liver (Folch et al., 1957).

[3] = tested on: C57BL/6J mice; assay: Lipid content and cholesterol saturation index in gallbladder bile; details: for Gallbladder Bile Bile salts / Gallbladder Bile Cholesterol / Gallbladder Bile Colesterol Saturation Index / Gallbladder Bile Phospholipids: 14 days
Method: as §1
as §2, with “1965). In order to determine fecal excretion of bile acids the mice feces were collected during three days (days 12-14), dried at 50° C. for one week and weighted. The feces are then homogenized in a mortar; (^14C) cholic acid, 200,000 cpm is added to 1 g of the homogenate to determine the degree of recovery. The samples are then mixed with NaBr, NaOH and HCl, dissolved in ethanol and incubated at 120° C. for 8 h in a reflux system. The hydrolyzed fecal samples are resuspended in NaOH and dried under gaseous N2. The pellet obtained is resuspended in ethanol and run through Sep-Pak columns to eliminate all bile salts contaminants.” for “1965).”

## O=C1[C@H](CC[C@H](O)c2ccc(F)cc2)[C@@H](c2ccc(O)cc2)N1c1ccc(F)cc1 [Ezetimibe, (−)-1-(4-fluorophenyl)-(3R)-[3-(4-fluorophenyl)-(.S)-hydroxypropyl]-(4S)-(4-hydroxyphenyl)-2-azetidinone]
[1]; Chow + Ezetimibe, 14 days
  Plasma Cholesterol: 86.21 ± 13.8 mg/dL
[1]; Lithogenic + Ezetimibe, 14 days
  Plasma Cholesterol: 161.38 ± 38.96 mg/dL
[1]; chow and lithogenic diets, 14 days (FIG. 2)
  plasma lipoprotein profile, ezetimibe groups vs controls: did not show significant differences
[1]; control diet, 14 days
  concentration of total cholesterol in plasma, with vs without ezetimibe: similar
[1]; lithogenic diet, 14 days
  increase of plasma cholesterol concentration, with vs without ezetimibe: similarly
[2]; Chow + Ezetimibe
  Hepatic Cholesterol Esterified: 0.34 ± 0.16 mg/mL
  Hepatic Cholesterol Free: 1.91 ± 0.65 mg/mL
  Hepatic Cholesterol Total: 2.26 ± 0.59 mg/mL
[2]; Lithogenic + Ezetimibe
  Hepatic Cholesterol Esterified: 1.31 ± 0.99^& mg/ml
  Hepatic Cholesterol Free: 2.59 ± 0.24 mg/mL
  Hepatic Cholesterol Total: 3.91 ± 1.05*^& mg/ml
[2]; control diet
  hepatic cholesterol content smaller with Ezetimibe than with water: 20%
[2]; lithogenic diet plus Ezetimibe, 360% on lithogenic diet without Ezetimibe
  increment of total hepatic cholesterol content: 38%
[3]; Chow + Ezetimibe
  Gallbladder Bile Bile salts: 65.00 mmol/L
  Gallbladder Bile Cholesterol: 1.19 mmol/L
  Gallbladder Bile Colesterol Saturation Index: 51.7%
  Gallbladder Bile Phospholipids: 11.62 mmol/L
[3]; Lithogenic + Ezetimibe
  Gallbladder Bile Bile salts: 70.37 mmol/L
  Gallbladder Bile Cholesterol: 1.35 mmol/L
  Gallbladder Bile Colesterol Saturation Index: 53.2%
  Gallbladder Bile Phospholipids: 12.92 mmol/L
[3]; control diet
  changes in cholesterol content, bile salts or lecitine in gallbladder bile: did not induce significant changes
  cholesterol saturation index, with vs without Ezetimibe: similar
[3]; lithogenic diet
  decrease of cholesterol content in the gallbladder bile: 50-60%
  reduction in the cholesterol saturation index: 50%
